# Several values for one entry are separate records, joined by “and”; a condition that tells them apart may be missing. Equal values may be shown once. Read-outs that look alike come from different tables or passages of the source. Marks after values point to notes of the source that are not given here.
# Experiments:
# [1] = system: P. falciparum eEF2 mutant parasites; design: method as in PMID 26085270; conditions: cited from earlier work
# [2] = system: P. falciparum Pf3D70087/N9; experiment: Murine P. falciparum SCID model, efficacy and recrudescence; type: in vivo, Plasmodium falciparum; conditions: for Parasitemia Day 3: day 3 = day of treatment
# Protocol: Compound efficacy was assessed in the murine P. falciparum SCID model essentially as described by Jimenez-Díaz et al. ([20]). Briefly, alone or in combination, M5717 (succinate salt by Merck KGaA [MSC2576186-B4]) and pyronaridine (tetraphosphate salt, Sigma-Aldrich [P0049]) were formulated in 7% Tween80, 3% ethanol and administered to a cohort of age-matched female immunodeficient NOD-scid IL-2Rγ^null mice (Jackson Laboratory, Bar Harbor, ME). These mice had been previously engrafted with human erythrocytes (generously provided by the blood bank in Zürich, Switzerland). Prior to compound treatment, mice were intravenously infected with 2 × 10^7 P. falciparum Pf3D7^0087/N9 -infected erythrocytes (day 0) ([30]). On day 3 after infection, mice, in groups of 2 to 5, were randomly allocated to treatments that were administered with a single oral gavage at 10 ml/kg (Table 2 and Fig. 2). Parasitemia was measured by microscopy. Chimerism was monitored by flow cytometry using an anti-murine erythrocyte TER119 monoclonal antibody (Pharmingen, San Diego, CA) and SYTO-16 and then analyzed by flow cytometry in serial blood samples (2 μl) collected every 2 to 3 days until the completion of the experiment (Table 2, day 60 and Fig. 2, day 80). Parasite recrudescence was detected by microscopy. Once parasitemia exceeded 0.5%, then 100 to 500 μl of blood was collected and stored at –80°C for subsequent sequence analysis. Animals received a second treatment with the same dose and if applicable the same combination of compounds as previously administered in that dose group (Fig. 2). Efficacy was again monitored by microscopy. If recrudescence occurred again then new blood samples were stored at –80°C.
# Time-to-recrudescence data were analyzed using the Kaplan-Meier method. Log-rank test was performed for two-group comparisons. Kaplan-Meier curves and log-rank test P values, as well as median estimates for time to recrudescence, are presented (SAS, Version 9.4. Cary, NC: SAS Institute Inc.; 2014).
# [3] = 400 mg in healthy volunteers ref 16; cited from earlier work
# [4] = M5717 3 mg/kg single oral dose (entry 1)
# [5] = M5717 6 mg/kg single oral dose (entry 2)
# [6] = M5717 12 mg/kg single oral dose (entry 3)
# [7] = M5717 30 mg/kg single oral dose (entry 4)
# [8] = pyronaridine 6 mg/kg single oral dose (entry 5)
# [9] = pyronaridine 12 mg/kg single oral dose (entry 6)
# [10] = pyronaridine 12 mg/kg single oral dose (entry 6), LLQ <0.01%
# [11] = pyronaridine 36 mg/kg single oral dose (entry 7)
# [12] = pyronaridine 36 mg/kg single oral dose (entry 7), LLQ <0.01%
smiles,measurement,setting,value
O=C(NCCN1CCCC1)c1cc(-c2ccc(CN3CCOCC3)cc2)nc2ccc(F)cc12 [M5717],IC50 fold shift,[1]; eEF2 mutation L755F ref 7,660 fold
same,IC50 fold shift,[1]; eEF2 mutation P754A ref 7,135 fold
same,IC50 fold shift,[1]; eEF2 mutation P754S ref 7,200 fold
same,fold shift of IC50,"[1]; eEF2 mutation Y186N, high-grade resistance ref 7","> 3,000 fold"
same,Parasitemia Day 4,[2]; [4],0.65%
same,Parasitemia Day 5,[2]; [4],0.49%
same,Parasitemia Day 6,[2]; [4],0.19%
same,Mean DoR (day of recrudescence),"[2]; M5717 3 mg/kg single oral dose (entry 1), uncorrected",6 days postinfection
same,Parasitemia Day 3,[2]; [4],1.2%
same,Parasitemia Day 4,[2]; [5],1.4%
same,Parasitemia Day 5,[2]; [5],1.03%
same,Parasitemia Day 6,[2]; [5],0.46%
same,Mean DoR (day of recrudescence),"[2]; M5717 6 mg/kg single oral dose (entry 2), uncorrected",17 days postinfection
same,Parasitemia Day 3,[2]; [5],1.26%
same,mice in which resistance evolved,[2]; M5717 12 mg/kg arm,5/5
same,Parasitemia Day 4,[2]; [6],0.58%
same,Parasitemia Day 5,[2]; [6],0.53%
same,Parasitemia Day 6,[2]; [6],0.11%
same,Mean DoR (day of recrudescence),"[2]; M5717 12 mg/kg single oral dose (entry 3), uncorrected",24 days postinfection
same,Parasitemia Day 3,[2]; [6],0.81%
same,median time to recrudescence,"[2]; M5717 12 mg/kg single oral dose, all mice n = 5, Kaplan-Meier, 12 mg/kg",19 days
same,day postinfection at which LLQ was reached,"[2]; M5717 12 mg/kg single oral dose, n = 5 (Fig. 2A)",8 days
same,median time to recrudescence,"[2]; M5717 12 mg/kg, mice showing no response to retreatment (M1, M2, M3, n = 3)",18 days
same,response to retreatment with the same dosing regimen,"[2]; M5717 12 mg/kg, mice with early recrudescence (D17, D18, D19)",not susceptible
same,response to retreatment with the same dosing regimen,"[2]; M5717 12 mg/kg, mice with later recrudescence (D23, D24)",responded partially
same,median time to recrudescence,"[2]; M5717 12 mg/kg, mice with later recrudescence (M4 and M5, n = 2)",23.5 days
same,Parasitemia Day 4,[2]; [7],0.73%
same,Parasitemia Day 5,[2]; [7],0.54%
same,Parasitemia Day 6,[2]; [7],0.21%
same,Mean DoR (day of recrudescence),"[2]; M5717 30 mg/kg single oral dose (entry 4), uncorrected",24 days postinfection
same,Parasitemia Day 3,[2]; [7],0.89%
same,Parasitemia for the individual mice at blood draw,"[2]; M5717 1x30 mg/kg single oral dose, recrudescent samples 1.1 and 1.2",3.25% and 0.50%
same,Recrudescence day post infection,"[2]; M5717 1x30 mg/kg single oral dose, samples 1.1 and 1.2",24
same,breakpoint between both phases of biphasic clearance of parasitemia,"[2]; M5717 alone at 3, 6, 12 and 30 mg/kg",around 48 h
COc1ccc2nc3cc(Cl)ccc3c(Nc3cc(CN4CCCC4)c(O)c(CN4CCCC4)c3)c2n1 [pyronaridine],t1/2,[3],10 days
same,Parasitemia Day 4,[2]; [8],0.09%
same,Parasitemia Day 5,[2]; [8],0.01%
same,Parasitemia Day 6,"[2]; pyronaridine 6 mg/kg single oral dose (entry 5), LLQ <0.01%",0.00^d %
same,Parasitemia Day 3,[2]; [8],0.89%
same,Parasitemia Day 4,[2]; [9],0.13%
same,Mean DoR (day of recrudescence),"[2]; pyronaridine 12 mg/kg single oral dose (entry 6), uncorrected",35 days postinfection
same,Parasitemia Day 5,[2]; [10],0.00^d %
same,Parasitemia Day 6,[2]; [10],0.00^d %
same,Parasitemia Day 3,[2]; [9],1.51%
same,Parasitemia Day 4,[2]; [11],0.12%
same,Parasitemia Day 5,[2]; [12],0.00^d %
same,Parasitemia Day 6,[2]; [12],0.00^d %
same,Parasitemia Day 3,[2]; [11],1.61%
same,Mean DoR (day of recrudescence),"[2]; pyronaridine 36 mg/kg single oral dose (entry 7), experiment ended at day 60 with parasitemia <0.01%",≥60^e days postinfection
